{"source": "paper PMC10491595", "about": "“Activation of the integrated stress response by inhibitors of its kinases” (Nature Communications, 2023)", "molecules": {"B1": {"name": "in-house recombinant GST-GCN2 fragment (192-1024) (domain or fragment, UniProt Q9P2K8 192-1024, looked up)", "chain": "RKEMAKQERLEIASLSNQDHTSKKDPGGHRTAAILHGGSPDFVGNGKHRANSSGRSRRERQYSVCNSEDSPGSCEILYFNMGSPDQLMVHKGKCIGSDEQLGKLVYNALETATGGFVLLYEWVLQWQKKMGPFLTSQEKEKIDKCKKQIQGTETEFNSLVKLSHPNVVRYLAMNLKEQDDSIVVDILVEHISGVSLAAHLSHSGPIPVHQLRRYTAQLLSGLDYLHSNSVVHKVLSASNVLVDAEGTVKITDYSISKRLADICKEDVFEQTRVRFSDNALPYKTGKKGDVWRLGLLLLSLSQGQECGEYPVTIPSDLPADFQDFLKKCVCLDDKERWSPQQLLKHSFINPQPKMPLVEQSPEDSEGQDYVETVIPSNRLPSAAFFSETQRQFSRYFIEFEELQLLGKGAFGAVIKVQNKLDGCCYAVKRIPINPASRQFRRIKGEVTLLSRLHHENIVRYYNAWIERHERPAGPGTPPPDSGPLAKDDRAARGQPASDTDGLDSVEAAAPPPILSSSVEWSTSGERSASARFPATGPGSSDDEDDDEDEHGGVFSQSFLPASDSESDIIFDNEDENSKSQNQDEDCNEKNGCHESEPSVTTEAVHYLYIQMEYCEKSTLRDTIDQGLYRDTVRLWRLFREILDGLAYIHEKGMIHRDLKPVNIFLDSDDHVKIGDFGLATDHLAFSADSKQDDQTGDLIKSDPSGHLTGMVGTALYVSPEVQGSTKSAYNQKVDLFSLGIIFFEMSYHPMVTASERIFVLNQLRDPTSPKFPEDFDDGEHAKQKSVISWLLNHDPAKRPTATELLKSELLPPPQMEESELHEVLHHTLTNVDG", "notes": "GCN2 (eIF2alpha kinase 4), residues 192-1024; MW of the GST fusion ~135 kDa as printed; eluted with glutathione, no cleavage of GST is described; GST itself is known to dimerise, so the dimer may owe to the tag (my surmise); also called recombinant GCN2; source: Sf9 (baculovirus), purified (Glutathione Sepharose 4B, Superdex 200); not shown: GST, N-terminal, kept"}}, "key": {"GCN2 [1]": {"biological_target": "T1, GCN2 (Homo sapiens, UniProt Q9P2K8)", "T1 construct": "gene EIF2AK4; GST-GCN2 fragment (192-1024)", "T1 sequence (Q9P2K8 192-1024)": "B1 chain", "test": "in vitro kinase assay (Gaussian activation then inhibition); thermal shift of kinase domain; competition with A92", "format": "biochemical"}, "PERK": {"biological_target": "T2, PERK (Homo sapiens, UniProt Q9NZJ5)", "T2 construct": "gene EIF2AK3", "T2 sequence (Q9NZJ5 30-1116)": "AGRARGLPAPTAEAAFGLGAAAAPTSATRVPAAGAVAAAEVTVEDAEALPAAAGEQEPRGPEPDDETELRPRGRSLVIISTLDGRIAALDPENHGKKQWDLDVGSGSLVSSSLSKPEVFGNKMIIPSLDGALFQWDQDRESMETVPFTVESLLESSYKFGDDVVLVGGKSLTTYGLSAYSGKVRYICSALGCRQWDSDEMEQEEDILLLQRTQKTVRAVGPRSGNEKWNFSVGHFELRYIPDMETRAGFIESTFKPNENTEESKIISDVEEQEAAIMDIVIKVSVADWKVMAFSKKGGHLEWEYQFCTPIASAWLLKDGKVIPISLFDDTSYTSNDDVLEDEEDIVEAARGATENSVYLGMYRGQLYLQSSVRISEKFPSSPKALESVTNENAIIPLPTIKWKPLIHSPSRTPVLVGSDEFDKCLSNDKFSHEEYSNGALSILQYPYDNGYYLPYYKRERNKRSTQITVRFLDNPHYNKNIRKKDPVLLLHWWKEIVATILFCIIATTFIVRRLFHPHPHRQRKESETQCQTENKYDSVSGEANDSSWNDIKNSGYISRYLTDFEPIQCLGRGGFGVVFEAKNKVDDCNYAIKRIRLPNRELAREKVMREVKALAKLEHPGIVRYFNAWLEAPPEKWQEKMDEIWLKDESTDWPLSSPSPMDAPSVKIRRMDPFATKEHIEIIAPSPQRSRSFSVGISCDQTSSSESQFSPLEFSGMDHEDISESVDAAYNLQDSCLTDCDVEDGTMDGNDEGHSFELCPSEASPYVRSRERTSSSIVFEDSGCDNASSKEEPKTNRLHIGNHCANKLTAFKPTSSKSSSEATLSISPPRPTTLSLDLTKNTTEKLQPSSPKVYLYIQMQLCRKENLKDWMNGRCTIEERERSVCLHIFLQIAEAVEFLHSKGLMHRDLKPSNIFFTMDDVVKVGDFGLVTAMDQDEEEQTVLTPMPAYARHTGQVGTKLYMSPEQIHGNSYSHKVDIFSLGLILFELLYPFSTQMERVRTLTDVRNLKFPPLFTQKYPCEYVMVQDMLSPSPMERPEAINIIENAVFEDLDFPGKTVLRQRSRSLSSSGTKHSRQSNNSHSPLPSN", "test": "PERK activation (mobility shift) immunoblot in tunicamycin-treated HeLa cells", "format": "cell-based"}, "GCN2 [2]": {"biological_target": "T1, GCN2", "test": "in vitro kinase assay", "format": "biochemical"}, "[3]": {"biological_target": "the molecule itself", "test": "SEC-MALS; GST-GCN2 fragment at ~1.7 mg/ml, incubated 20 min at 30 °C with DMSO or 50 µM GSK'157; Superdex 200 Increase 10/300 GL, 10 mM HEPES, 150 mM NaCl, 1 mM TCEP with DMSO or 50 µM GSK'157; same result in both conditions"}}}
{"molecule": "Cc1cccc(CC(=O)N2CCc3c2ccc(-c2cn(C)c4ncnc(N)c24)c3F)n1", "note": "[GSK'157, GSK2656157]", "values": [{"measurement": "in vitro kinase assay (Gaussian activation then inhibition); thermal shift of ki", "setting": "GCN2 [1]", "value": "~ 5 μM"}, {"measurement": "PERK activation (mobility shift) immunoblot in tunicamycin-treated HeLa cells", "setting": "PERK", "value": "0.02 to 10", "unit": "µM"}]}
{"molecule": "Nc1ncnc2c1ncn2[C@@H]1O[C@H](CO[P@](=O)(O)O[P@](=O)(O)NP(=O)(O)O)[C@@H](O)[C@H]1O", "note": "[AMP-PNP]", "values": [{"measurement": "in vitro kinase assay", "setting": "GCN2 [2]", "value": "~ 250 μM"}]}
{"molecule": "B1", "values": [{"measurement": "stoichiometry N", "setting": "[3]", "value": 2}]}
